Earlier results on two compounds are cited in US8524293B1, “Method for producing a red grape tea-like composition” (priority 2009, dated 2013).

The subject of one data set is flu. The conditions noted are these: laboratory animals.
Data set [1] relates to intestinal tumor formation. To be noted: cancerous mouse.

As to `O=c1c(O)c(-c2ccc(O)c(O)c2)oc2cc(O)cc(O)c12` [quercetin], the risk of flu entry in the data set with flu is “reduce the risk of flu”.
For the compound catechin, in data set [1], the “focal adhesion kinase activation” value is on record as “suppressed focal adhesion kinase activation” and the intestinal tumor formation result is on record as “inhibited intestinal tumor formation”.
